Data: PMC9963287 (Viruses, 2023)
pIC50, pKd: −log10 of the molar value.

What was measured:
M^pro [1] = biological target: T1, M^pro (Severe acute respiratory syndrome coronavirus 2, UniProt P0DTD1); experiment: Bio-layer interferometry binding kinetics assay; set-up: species or system SARS-CoV-2; settings: BLI, 1:1 binding model, 30 °C; for pKd: KD = koff/kon
SARS-CoV-2 M^pro = SARS-CoV-2 M^pro (Severe acute respiratory syndrome coronavirus 2, UniProt P0DTD1); experiment: In vitro FRET M^pro inhibition assay; assay type: biochemical; settings: 50 nM M^pro; for pIC50: FRET assay, inhibitor 3.125-100 μM, read-out: IC50 against M^pro enzymatic activity; for inhibition at 50 µM: initial screen at 50 μM compound, read-out: inhibitory activity against M^pro
M^pro [2] = biological target: T1, M^pro; settings: at a concentration of 50 μM; cited from earlier work
[3] = set-up: method as in earlier work; settings: in animals; cited from earlier work

`Nc1ccc(OC(=O)CC[C@@H](C(=O)Oc2ccc(N)c([N+](=O)[O-])c2)n2cnc3ccccc3c2=O)cc1[N+](=O)[O-]` [G4] gave a koff (M^pro [1]) of 0.413 s⁻¹, a kon (M^pro [1]) of 16200 M⁻¹ s⁻¹ and a pKd (M^pro [1]) of 4.59. The pIC50 (SARS-CoV-2 M^pro) was ~4.70 and the inhibition at 50 µM (SARS-CoV-2 M^pro) was > 50%.
For `COc1cccc(Nc2c(C(N)=O)cnc3c(C)cc(S(=O)(=O)c4cccc(C(=O)N(C)C)c4)cc23)c1` [GSK-256066], the “M^pro inhibitory activity” value (M^pro [2]) is given as “more than 30%”.
For `CC(C)CC(NC(=O)OCc1ccccc1)C(=O)NC(CC1CCNC1=O)C(O)S(=O)(=O)O` (stereo not shown) [GC376], the side effects [3] is given as “delayed adult teeth development”.
`O=C(CC[C@@H](C(=O)Nc1cccc([N+](=O)[O-])c1)n1cnc2ccccc2c1=O)Nc1cccc([N+](=O)[O-])c1` [G1] showed a koff (M^pro [1]) of 0.00325 s⁻¹, a kon (M^pro [1]) of 125 M⁻¹ s⁻¹ and a pKd (M^pro [1]) of 4.59. The pIC50 (SARS-CoV-2 M^pro) was ~4.70 and the inhibition at 50 µM (SARS-CoV-2 M^pro) was > 50%.
In the case of `CC(O)(CS(=O)(=O)c1ccc(F)cc1)C(=O)Nc1ccc(C#N)c(C(F)(F)F)c1` (stereo not shown) [bicalutamide], the “M^pro inhibitory activity” value (M^pro [2]) is given as “more than 30%”.
